Where two headings read alike, the source gives them in different places.
Key:
in vitro [1] = settings: mouse, NIH3T3 LD50, Table 3; calculated from NIH3T3 IC50 by regression formula
Excerpt: (§1) Data from the in vitro tests were used for estimating the starting dose for acute oral systemic toxicity tests in the rodent. The in vivo starting dose is an estimated LD50 value calculated by inserting the in vitroIC50 value into a regression formula: log LD50 (mM/kg) = 0.439 log IC50 (mM) + 0.621 [23–25]. […] Using an alternative in vitro method allows the comparison between possibly toxic new compounds and selecting compounds for further study vastly reducing the number of animal experiments.
(§2) Additionally, the compound influence on “normal” mouse fibroblasts (NIH3T3) was estimated for the studies of structure-activity relationships and exploration of the effect of substituents.

[2] = test system: NIH3T3 (mouse embryonic fibroblast); experiment: Basal cytotoxicity test, Neutral Red Uptake (NRU) assay; settings: for IC50: Mus musculus
Method: The NRU cytotoxicity assay procedure is based on the ability of viable cells to incorporate and bind neutral red, a supravital dye.
Balb/c NIH 3T3 (mouse Swiss albino embryo fibroblast, ATCC® CRL-1658™) cells (9000 cells/well) were placed into 96-well plates for 24 h in Dulbecco's modified Eagle's medium (DMEM) containing 5% fetal bovine serum. Then, the cells were exposed to the test compound over a range of seven concentrations (1000, 316, 100, 31, 10, 3, and 1 μg/ml) for 24 h. Untreated cells were used as a control. After 24 h, the medium was removed from all plates. Then, 150 μl of neutral red solution was added (0.05 mg/ml NR in DMEM 24 h preincubated at 37°C and then filtered before use through a 0.22 μm syringe filter). Plates were incubated for 3 h, and then, the cells were washed three times with PBS. The dye within viable cells was released by extraction with a mixture of acetic acid, ethanol, and water (1 : 50 : 49). The absorbance of neutral red was measured using a spectrophotometer multiplate reader (Tecan Infinite M1000) at 540 nm. The optical density (OD) was calculated using the following formula: OD (treated cells) × 100/OD (control cells). The IC50 values were calculated using the GraphPad Prism® 3.0 program.

MH-22A (mouse hepatoma) [3] = experiment: Cytotoxicity, MTT assay, MH-22A; type: cell-based; settings: Mus musculus, read-out: MH-22A IC50 (MTT)
Excerpt: (§3) Reduction takes place only when mitochondrial reductase enzymes are active, and therefore, conversion is directly related to the number of viable cells which can be quantified by the absorbance of the solution (between λ = 500 and 600 nm) using a spectrophotometer.

MH-22A (mouse hepatoma) [4] = experiment: Cytotoxicity, crystal violet (CV) assay, MH-22A; type: cell-based; settings: Mus musculus, read-out: MH-22A IC50 (CV)
Method: (§4) After incubation, the staining solution was removed. The cells were washed 4 times with water.

[5] = test system: HT-1080 (human lung fibrosarcoma); experiment: Cytotoxicity, MTT assay, HT-1080; type: cell-based; settings: Homo sapiens, read-out: HT-1080 IC50 (MTT)
Excerpt: as §3

[6] = test system: HT-1080 (human lung fibrosarcoma); experiment: Cytotoxicity, crystal violet (CV) assay, HT-1080; settings: Homo sapiens, HT-1080, 72 h, read-out: HT-1080 IC50 (CV)
Method: (§5) IC50 is the compound concentration (μg/ml) at which 50% of the cells die. […] CV staining can be used to quantify the total DNA of the remaining population and thus is used to determine the number of live cells based on the concentration of the dye which remains after staining.
(§6) Tumor cell lines HT-1080 (human connective tissue fibrosarcoma, ATCC® CCL-121™) and MH-22A (mouse hepatocarcinoma, ECACC, cat. Nr. 96121721) were used.
(§7) HT-1080 and MH-22A cells were seeded in 96-well plates in Dulbecco's modified Eagle's (DMEM) medium containing 10% fetal bovine serum and 4 mM L-glutamine, without antibiotics, and cultivated for 72 h by exposure to different concentrations of compounds. Cell viability was measured using 3-(4,5-dimethylthiazol-2-yl)-2,5-diphenyltetrazolinium bromide (MTT). In brief, after incubating with compounds, the culture medium was removed and fresh medium with 0.2 mg/ml MTT was added in each well of the plate. After incubation (3 h, 37°C, 5% CO2), the medium with MTT was removed, and 200 μl DMSO was added at once to each sample. The samples were tested at 540 nm on a Tecan Infinite M1000 multiplate reader. The IC50 was calculated using the program GraphPad Prism® 3.0.
(§8) For the CV assay, cells were stained with 0.05% crystal violet (Sigma-Aldrich) in 30% methanol for 20 minutes at room temperature. After incubation, the staining solution was removed. The cells were washed 4 times with water. For dye solubilization, 200 μl of a solubilizing solution (0.1 M citrate buffer, pH 4.2 in 50% ethanol; 1 : 1 v/v) was added. The absorbance of the solution was measured using a Tecan Infinite M1000 multiplate spectrophotometer at a wavelength of 570 nm [21].

[7] = Electrochemical oxidation potentials, cyclic voltammetry; type: physicochemical; settings: glassy carbon electrode, dry acetonitrile; for Oxidation potential E^ox: Table 4, vs Ag/Ag+, 0.1 M TBABF4, tested as perchlorates; for electrooxidation potential: cyclic voltammetry
Method: A stationary glassy carbon disk electrode (d = 0.5 mm) served as the working electrode, while the counterelectrode was a Pt wire. The oxidation potentials were measured relative to a Ag/Ag^+ reference electrode. Acetonitrile was dried over P2O5 and distilled; the distillate was stored over CaH2 and redistilled just before use. Recrystallized tetrabutylammonium tetrafluoroborate (TBABF4) was used as a supporting electrolyte at 0.1 M concentration.
The electrochemical oxidation of the selected compounds studied in this work was performed by cyclic voltammetry on a stationary glassy carbon electrode in dry acetonitrile; the data is presented in Table 4. The perchlorates of the tested amphiphiles were obtained from the corresponding bromides by treating their abs. MeOH solutions with excess of conc. HClO4 according to the procedure elaborated by Turovska et al..

in vitro [8] = type: cell-based; settings: human and mouse; summarises both cell lines, CV and MTT; read-out: cytotoxicity on cancer cell lines HT-1080 and MH-22A
Method: as §4

NIH3T3 = experiment: in vitro; settings: for LD50 (calculated, NIH3T3): mouse
Excerpt: as §1, §2

[9] = Cytotoxicity, crystal violet (CV) assay, HT-1080; settings: human, HT-1080 cells (fibrosarcoma)
Method: as §5, §6, §7, §8

[10] = NIH3T3, 24 h, read-out: NIH3T3 IC50 (NR), Table 3, 24 h exposure
[11] = HT-1080, Table 3, 72 h exposure
[12] = NIH3T3, 24 h, read-out: NIH3T3 IC50 (NR), Table 1, 24 h exposure
[13] = HT-1080, Table 1, 72 h exposure
[14] = NIH3T3, 24 h, read-out: NIH3T3 IC50 (NR)

Row | SMILES | LD50 (in vitro [1]) [mg/kg] | IC50 [2, 10] [µg/mL] | IC50 (MH-22A (mouse hepatoma) [4]; Table 3, 72 h exposure) [µg/mL] | IC50 [6] [µg/mL] | IC50 (MH-22A (mouse hepatoma) [3]; Table 1, 72 h exposure) [µg/mL] | IC50 (MH-22A (mouse hepatoma) [4]; Table 1, 72 h exposure) [µg/mL] | IC50 [5, 13] [µg/mL] | other results
1 | CCCCCCCCCCCCCCCCOC(=O)/C=C(\N)C[N+](C)(C)C1CCCCC1 [compound 39, (Z,E)-N-(2-Amino-4-(hexadecyloxy)-4-oxobut-2-en-1-yl)-N,N-dimethylcyclohexanaminium chloride] | 97 | 0.7 ± 0.1 | 1 ± 0.6 | 0.35 ± 0.06 | – | – | – | IC50 (MH-22A (mouse hepatoma) [3]; Table 3, 72 h exposure): 0.2 ± 0.06 µg/mL; IC50 [5, 11]: 0.5 ± 0.1 µg/mL
2 | O=C(OCCCCC(F)(F)C(F)(F)C(F)(F)C(F)(F)C(F)(F)C(F)(F)C(F)(F)C(F)(F)F)C1=C(C[n+]2ccccc2)NC(C[n+]2ccccc2)=C(C(=O)OCCCCC(F)(F)C(F)(F)C(F)(F)C(F)(F)C(F)(F)C(F)(F)C(F)(F)C(F)(F)F)C1c1ccccc1 [compound 24, Bis(5,5,6,6,7,7,8,8,9,9,10,10,11,11,12,12,12-heptadecafluorododecyl) 1,4-dihydro-2,6-dimethyl-4-phenylpyridine-3,5-dicarboxylate-2,6-dipyridinium bromide] | – | – | – | 100 ± 11 | > 100 | > 100 | 100 ± 9 | Oxidation potential E^ox [7]: 1.69 V; electrooxidation potential [7]: 1.69–1.70 V; IC50 [2, 12]: > 1000 µg/mL; IC50 (in vitro [8]): ~100 µg/mL
3 | CCCCCCCCCCCCOC(=O)/C=C(\N)C[n+]1ccccc1 [compound 47, (Z,E)-1-(2-Amino-4-(dodecyloxy)-4-oxobut-2-en-1-yl)pyridin-1-ium iodide] | 403 | 14 ± 9 | 2 ± 0.1 | 3 ± 0.4 | – | – | – | –
4 | CCCCCCCCCCCC[N+](C)(C)C/C(N)=C/C(=O)OCCCCCCCCCC [compound 48, (Z,E)-N-(2-Amino-4-(decyloxy)-4-oxobut-2-en-1-yl)-N,N-dimethyldodecan-1-aminium chloride] | 485 | 17 ± 3 | 2 ± 0.2 | 3 ± 0.4 | – | – | – | –
5 | CCOC(=O)C1=C(C[n+]2ccccc2)NC(C[n+]2ccccc2)=C(C(=O)OCC)C1C(=O)OC.[Br-].[Br-] [compound 8, 1,1'-((3,5-Bis(ethoxycarbonyl)-4-(methoxycarbonyl)-1,4-dihydropyridine-2,6-diyl)-bis(methylene))bis(pyridin-1-ium) dibromide] | – | – | – | > 100 | > 100 | > 100 | > 100 | LD50 (calculated, NIH3T3) (NIH3T3): > 2000 mg/kg; IC50 [2, 14]: > 1000 µg/mL
6 | CCCCCCCCCCCCOC(=O)C1=C(C[n+]2ccccc2)NC(C[n+]2ccccc2)=C(C(=O)OCCCCC(F)(F)C(F)(F)C(F)(F)C(F)(F)C(F)(F)C(F)(F)C(F)(F)C(F)(F)F)C1c1ccccc1 (stereo not drawn) [compound 23, Dodecyl 5,5,6,6,7,7,8,8,9,9,10,10,11,11,12,12,12-heptadecafluorododecyl 1,4-dihydro-2,6-dimethyl-4-phenylpyridine-3,5-dicarboxylate-2,6-dipyridinium dibromide] | – | – | – | 50 ± 6 | 75 ± 11 | 47 ± 2 | 47 ± 8 | Oxidation potential E^ox [7]: 1.70 V; electrooxidation potential [7]: 1.69–1.70 V; IC50 [2, 12]: 477 ± 25 µg/mL; IC50 (in vitro [8]): 47 to 75 µg/mL
7 | CCCCCCCCCCCCOC(=O)C1=C(C[n+]2ccccc2)NC(C[n+]2ccccc2)=C(C(=O)OCCCCCCCCCCCC)C1c1ccccc1 [compound 11, 1,1'-((3,5-Bis((dodecyloxy)carbonyl)-4-phenyl-1,4-dihydropyridine-2,6-diyl)bis(methylene))bis(pyridin-1-ium) ditetrafluoroborate] | – | – | – | 31 ± 4 | 30 ± 9 | 30 ± 6 | 28 ± 9 | IC50 [2, 12]: 47 ± 8 µg/mL; IC50 at 72 h [9]: ~30 µg/mL
8 | CCCCCCCCCCCCCCCCOC(=O)/C=C(\N)C[N+](C)(C)CCCCCCCCCCCC [compound 44, (Z,E)-N-(2-Amino-4-(hexadecyloxy)-4-oxobut-2-en-1-yl)-N,N-dimethyldodecan-1-aminium bromide] | – | – | 25 ± 3 | 3 ± 0.4 | – | – | – | Oxidation potential E^ox [7]: 1.24 V; electrooxidation potential [7]: 1.24 V; NIH3T3 LD50 (NIH3T3; Table 3, calculated from NIH3T3 IC50 by regression formula): 697 mg/kg; IC50 ([2]; NIH3T3, read-out: IC50 in NIH3T3 cell lines): ~30 µg/mL; NIH3T3 IC50 (NR) ([2]; Table 3, 24 h exposure): 31 ± 8 µg/mL; IC50 (MH-22A (mouse hepatoma) [3]; Table 3, 72 h exposure): 28 ± 6 µg/mL; IC50 [5, 11]: 3 ± 0.3 µg/mL
9 | CCCCCCCCCCCCCCCCOC(=O)/C=C(\N)C[N+](C)(C)CCCCCC [compound 43, (Z,E)-N-(2-Amino-4-(hexadecyloxy)-4-oxobut-2-en-1-yl)-N,N-dimethylhexan-1-aminium chloride] | 538 | 21 ± 6 | 2 ± 0.2 | 3 ± 0.6 | – | – | – | IC50 (MH-22A (mouse hepatoma) [3]; Table 3, 72 h exposure): 1 ± 0.2 µg/mL; IC50 [5, 11]: 2 ± 0.4 µg/mL
10 | CCCCCCCCCCCCOC(=O)C1=C(C[N+](C)(C)C2CCCCC2)NC(C[N+](C)(C)C2CCCCC2)=C(C(=O)OCCCCCCCCCCCC)C1c1ccccc1.[O-][Cl+3]([O-])([O-])[O-].[O-][Cl+3]([O-])([O-])[O-] [compound 17, N,N'-((3,5-Bis((dodecyloxy)carbonyl)-4-phenyl-1,4-dihydropyridine-2,6-diyl)bis(methylene))bis(N,N-dimethylcyclohexanaminium) diperchlorate] | – | – | – | 35 ± 9 | 35 ± 9 | 54 ± 16 | 23 ± 3 | IC50 [2, 12]: 59 ± 12 µg/mL; IC50 (in vitro [8]): 23 to 54 µg/mL
11 | CCCCCCCCCCCCCCCCOC(=O)/C=C(\N)C[N+](C)(C)CCCCCCCCCCCC [compound 45, (Z,E)-N-(2-Amino-4-(hexadecyloxy)-4-oxobut-2-en-1-yl)-N,N-dimethyldodecan-1-aminium chloride] | 573 | 25 ± 9 | – | – | – | – | – | IC50 in NIH3T3 cell lines [2]: around 30 μg/ml
12 | CCCOCOC(=O)C1=C(C[n+]2ccccc2)NC(C[n+]2ccccc2)=C(C(=O)OCOCCC)C1c1ccccc1OC(F)F.[Br-].[Br-] [compound 7, 1,1'-((4-(2-(Difluoromethoxy)phenyl)-3,5-bis((propoxymethoxy)carbonyl)-1,4-dihydropyridine-2,6-diyl)bis(methylene))bis(pyridin-1-ium) dibromide] | – | – | – | > 100 | > 100 | > 100 | > 100 | LD50 (calculated, NIH3T3) (NIH3T3): > 2000 mg/kg; IC50 [2, 14]: > 1000 µg/mL
13 | CCCCCCCCCCCCOC(=O)C1=C(C[n+]2ccccc2)NC(C[n+]2ccccc2)=C(C(=O)OCCCCCCCCCCCC)C1c1ccc(C2C(C(=O)OCCCCCCCCCCCC)=C(C[n+]3ccccc3)NC(C[n+]3ccccc3)=C2C(=O)OCCCCCCCCCCCC)cc1.[Br-].[Br-].[Br-].[Br-] [compound 26, 1,1',1'',1'''-((1,4-Phenylenebis(3,5-bis((dodecyloxy)carbonyl)-1,4-dihydropyridine-4,2,6-triyl))tetrakis(methylene))tetrakis(pyridin-1-ium) tetrabromide] | – | – | – | 12 ± 4 | – | – | – | IC50 [2, 14]: 717 ± 56 µg/mL; IC50 (MH-22A (mouse hepatoma) [3]; 72 h): 21 ± 4 µg/mL; IC50 (MH-22A (mouse hepatoma) [4]; 72 h): 27 ± 6 µg/mL; IC50 at 72 h (in vitro [8]): 12 to 27 µg/mL; IC50 ([5]; HT-1080, 72 h): 14 ± 2 µg/mL
14 | CCOC(=O)C1=C(C[n+]2ccc(C)cc2)NC(C[n+]2ccc(C)cc2)=C(C(=O)OCC)C1c1ccccc1.[Br-].[Br-] [compound 2, 1,1'-((3,5-Bis(ethoxycarbonyl)-4-phenyl-1,4-dihydropyridine-2,6-diyl)bis(methylene))-bis(4-methylpyridin-1-ium) dibromide] | – | – | – | > 100 | > 100 | > 100 | > 740 | LD50 (calculated, NIH3T3) (NIH3T3): > 2000 mg/kg; IC50 [2, 14]: > 1000 µg/mL

Reference: publication PMC7790557, “Pleiotropic Properties of Amphiphilic Dihydropyridines, Dihydropyridones, and Aminovinylcarbonyl Compounds” (Oxidative Medicine and Cellular Longevity, 2020)
